Results on one molecule are retold here after BindingDB's records for doi:10.1021/jm990947f (University of Nottingham, 2000).

Assay [1] is described as follows: Inhibition of IGF-I stimulated MCF-7 human breast tumor cell proliferation.
The nature of assay [2]: Inhibition of IGF-II stimulated MCF-7 human breast tumor cell proliferation.

For the molecule `COc1cc(/C=C(\C#N)c2ccccn2)ccc1O`, the values for the IC50 in assay [1] and in assay [2] were 2.9 µM and 3.2 µM, respectively.
